Source: patent US8404706B2, “Opioid and opioid-like compounds and uses thereof” (Jenken Biosciences, Inc., priority 2002, dated 2013)

Tests used:
[1] = biological target: σ1 (Homo sapiens, UniProt Q99720); details: cited from earlier work; for Ki: read-out: Ki (σ1-ligands)
[2] = system: rats treated with lipopolysaccharide (LPS); assay: Mean arterial blood pressure (MAP) in LPS-treated rats; type: in vivo, Wistar-Kyoto (WKY) rats; details: 5 mg/Kg iv 30 min before LPS (10 mg/Kg iv); 6 h after LPS
Procedure: (§1) Wistar-Kyoto (WKY) rats were anesthetized by intraperitoneal injection of urethane (1.2 g/kg). The trachea was cannulated to facilitate respiration and environmental temperature was maintained at 24° C. with an air-conditioning system. […] The left jugular vein was cannulated for the administration of drugs. Upon completion of the surgical procedure, cardiovascular parameters were allowed to stabilize for 30 min. After recording baseline hemodynamic parameters, animals were given norepinephrine [NE, 1 μg/kg intravenously (i.v.)], and 10 min later animals received vehicle (saline) or Escherichia coli lipopolysaccharide (LPS), 5-10 mg/kg, i.v. and were monitored for 360 min. The pressor responses to NE were reassessed every hour after vehicle or LPS injection. Prior to (i.e., at time 0) and every hour after vehicle or LPS, 0.5 mL of blood was taken to measure the changes in cytokine tumor necrosis factor-α (TNF-α), interleukin-10β (IL-10), and nitrate (an indicator of NO) (Yen, M. H. et al., Shock 14, 60-67, 2000). Any blood withdrawn was immediately replaced by the injection of an equal volume of saline (i.v.) in order to maintain the blood volume. The drug was administered i.v. 30 min. prior to and 30 min. after the injection of LPS. All hemodynamic and biochemical parameters were recorded for 6 hours in all animal groups.
(§2) Compounds, XXV and XXVI (shown below), were tested according to the foregoing protocols. In the following tables, XXV or XXVI (5 mg/Kg, iv) was injected 30 min before LPS treatment (10 mg/Kg, iv) unless otherwise indicated. In all experiments, at least six rats were tested. All measurements were performed 6 h after LPS injection unless otherwise indicated. The inhibitory effects of the compounds tested were described as a percentage of protection or inhibition with respect to the change in LPS-treated animals as compared to the control animals.

[3] = system: nitrate (an indicator of NO); assay: Plasma nitrate in LPS-treated rats; type: in vivo, Wistar-Kyoto (WKY) rats; details: 5 mg/Kg iv 30 min before LPS (10 mg/Kg iv); 6 h after LPS
Procedure: as §1, with “Prior to (i.e., at time 0) and every hour after vehicle or LPS, 0.5 mL of blood was taken to measure the changes in cytokine tumor necrosis factor-α (TNF-α), interleukin-10β (IL-10), and nitrate (an indicator of NO) (Yen, M. H. et al., Shock 14, 60-67, 2000). Any blood withdrawn was immediately replaced by the injection of an equal volume of saline (i.v.) in order to maintain the blood volume. The drug was administered i.v. 30 min. prior to and 30 min. after the injection of LPS.” left out
Fifty microliters of plasma previously kept in −20° C. freezer was thawed and de-proteinized by incubating with 95% ethanol (4° C.) for 30 min. […] The amounts of nitrate in the plasma ([…]) were measured by adding a reducing agent (0-8% VCl3 in 1N HCl) to the purge vessel to convert nitrate to NO, which was stripped from the plasma by using a helium gas purge. […] Nitrate concentrations were calculated by comparison with standard solutions of sodium nitrate (Sigma Chemical Co., St. Louis, Mo.). […]

[4] = system: SGPT; assay: Serum glutamic pyrate transaminase (SGPT) in LPS-treated rats; type: in vivo; details: for SGPT, LPS + Compound / SGPT % Inhibition: 6 h after LPS
Procedure: as §1
(§3) 10 μl of serum was taken out at 0 and 6 hr intervals and were added to slides of GOP and GTP and then placed in DRI-CHEM 3000 (Colorige Tric Analyzer; FUJIFILM; Tokyo, Japan.
as §2

[5] = system: Creatinine; assay: Plasma creatinine in LPS-treated rats; type: in vivo; details: 5 mg/Kg iv 30 min before LPS (10 mg/Kg iv); 6 h after LPS
Procedure: as §1, with “Any blood withdrawn was immediately replaced by the injection of an equal volume of saline (i.v.) in order to maintain the blood volume. The drug was administered i.v. 30 min. prior to and 30 min. after the injection of LPS.” left out
(§4) BUN and Creatinine levels were measured at 0 and 6 hr after injection of saline or LPS by “DRI-Chemical slide” (Fujifilm Co., dropping 10 μL plasma onto the slide with micropipette). […]

[6] = system: Superoxide; assay: Superoxide in LPS-treated rats; type: in vivo; details: 6 h after LPS
Procedure: as §2

[7] = system: Blood urea nitrogen; assay: Blood urea nitrogen (BUN) in LPS-treated rats; type: in vivo; details: 5 mg/Kg iv 30 min before LPS (10 mg/Kg iv); 6 h after LPS
Procedure: as §1, with “Any blood withdrawn was immediately replaced by the injection of an equal volume of saline (i.v.) in order to maintain the blood volume. The drug was administered i.v. 30 min. prior to and 30 min. after the injection of LPS.” left out
as §4

[8] = system: TNF-α; assay: Plasma TNF-α (ELISA) in LPS-treated rats; type: in vivo, Wistar-Kyoto (WKY) rats; details: 5 mg/Kg iv 30 min before LPS (10 mg/Kg iv); measurement taken at 2 h
Procedure: as §1
Blood samples (0.3 mL) for the measurement of TNF-α level in the plasma were obtained at 0, 60, 120, 180, and 360 min. after the injection of saline or LPS. At 60 and 360 min. after the injection of saline or LPS, the volume of blood sample taken from the animals was 0.5 mL instead of 0.3 mL for performing the measurement of IL-10 in addition to TNF-α. These samples were collected from a catheter placed in the carotid artery and were centrifuged at 7200 g for 3 min. to obtain the plasma for measuring the levels of TNF-α, IL-10, and nitrate (as described below). The plasma samples (100 μL) were diluted 1:2, and TNF-α was measured in duplicate with an enzyme-linked immunoadsorbent assay (ELISA) kit (Genzyme Co., Cambridge, Mass.), and the amounts of IL-10 in the plasma (100 μL) were measured by ELISA kit (Endogen Inc., Boston, Mass.), as described previously (Yen, M. H. et al.: Biochem. Biophys. Res. Commun. 228:459-466 (1996)).
Compounds, XXV and XXVI (shown below), were tested according to the foregoing protocols. In the following tables, XXV or XXVI (5 mg/Kg, iv) was injected 30 min before LPS treatment (10 mg/Kg, iv) unless otherwise indicated. In all experiments, at least six rats were tested. All measurements were performed 6 h after LPS injection unless otherwise indicated. […]

[9] = system: rats treated with lipopolysaccharide (LPS); assay: Heart rate in LPS-treated rats; type: in vivo, Wistar-Kyoto (WKY) rats; details: 5 mg/Kg iv 30 min before LPS (10 mg/Kg iv); 6 h after LPS
Procedure: as §1, §2

[10] = system: ICR mice injected with LPS; assay: Survival study after LPS; type: in vivo
Procedure: Survival studies were performed in ICR mice (28-35 g), whose stock originated from the Institute of Cancer Research of National Institute of Health in U.S.A. They were purchased from the National Animal Center (Taipei, R.O.C., Taiwan). LPS [60 mg/kg intraperitoneally (i.p.)] was injected in the presence of vehicle or drugs and survival was monitored every 6 hours until 36 hours, Different groups of animals received vehicle (saline) together with LPS (n=20) or LPS plus compounds (2.5 mg/kg at time 0 and 6 hours after LPS, n=20).
All values in the figures and text are expressed as mean. SEM of n observations, where n represents the number of animals studied. Statistical evaluation was performed by using analysis of variance (ANOVA) followed by a multiple comparison test (Scheffe's test), the IL-10 level and the neutrophil infiltration index which were analyzed by unpaired Student's t test. The chi-square test was used for determining the significant differences in the survival rate between control and drug-treated groups. A P value of less than 0.05 was considered to be statistically significant.

[11] = system: lung tissues of rats receiving lipopolysaccharide (LPS); assay: Histological study of lung tissue after LPS
Text: Lungs and livers were obtained from surviving mice in each group after the survival study and these tissues were fixed in Carson-Millonig's solution for histopathological examination as described previously in Chen, A. et al. Lab. […] The fixed lung and liver tissues were dehydrated in graded ethanol and embedded in paraffin. Three-micron sections were stained with the hematoxylin and eosin reagent for light microscopy. […] This histological alteration was quantitatively analyzed as an index on the severity of tissue injury. This index was a neutrophil infiltration index which was determined by counting the numbers of neutrophils in 10 randomly selected high power fields. The index was expressed as the mean of these 10 numbers±standard error of the mean (SEM)/high power field.

[12] = system: SGOT; assay: Serum glutamic oxaloacetic transaminase (SGOT) in LPS-treated rats; type: in vivo; details: for SGOT % Inhibition / SGOT, LPS + Compound: 6 h after LPS
Procedure: as §1, §3, §2

[13] = 5 mg/Kg iv 30 min before LPS (10 mg/Kg iv)
[14] = 5 mg/Kg iv 30 min before LPS (10 mg/Kg iv), XXVI value not statistically significant
[15] = 6 hours after LPS, pretreatment (30 min before LPS; 5, 10 mg/kg) and post-treatment (30 min after LPS; 10 mg/kg), p<0.05

Chain of σ1 (Q99720 whole entry): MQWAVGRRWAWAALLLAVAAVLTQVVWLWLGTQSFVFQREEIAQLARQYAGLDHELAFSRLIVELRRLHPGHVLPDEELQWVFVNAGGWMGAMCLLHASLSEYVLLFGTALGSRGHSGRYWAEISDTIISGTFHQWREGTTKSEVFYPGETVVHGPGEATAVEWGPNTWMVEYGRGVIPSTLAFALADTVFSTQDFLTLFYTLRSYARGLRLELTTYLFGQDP

Br.C=CCN1CC[C@]23CCCC[C@H]2[C@H]1Cc1ccc(OC)cc13
melting point: 190 to 192 °C

C=CCN1CCC2(C)c3cc(O)ccc3CC1C2C (stereo not shown) [N-allylnormetazocine]
affinity at σ1 [1]: relatively poor affinity
σ1/σ2 ratio ([1]; selectivity ratio): < 100

COc1ccc2c(c1)[C@]13CCCCC1[C@H](C2)N(C)CC3 (stereo partly shown) [XXVI]
MAP % Protection [2]: 100%
MAP, LPS + Compound [2]: 105 mmHg
Nitrate % Inhibition [3]: 75%
Nitrate, LPS + Compound [3]: 75 µM
SGPT, LPS + Compound [4, 13]: 36 U/L
SGPT % Inhibition [4, 14]: 100^3%
Creatinine % of Inhibition [5]: 60%
Creatinine, LPS + Compound [5]: 0.40 mg/dL
Superoxide % Inhibition [6, 13]: 68%
Superoxide, LPS + Compound [6, 13]: 8200 relative units
Blood urine nitrogen % of Inhibition [7]: 47%
Blood urine nitrogen, LPS + Compound [7]: 45 mg/dL
TNF-α % Inhibition [8]: 74%
TNF-α, LPS + Compound [8]: 510 ng/mL
Heart Rate % Protection [9]: 36%
Heart Rate, LPS + Compound [9]: 420 beats/min
% of Protection (survival at 14 h) ([10]; 14 h after LPS): 100%
% of Survival at 14 h, LPS + Compound ([10]; 14 h after LPS, method: LPS 60 mg/kg i.p., compound 2.5 mg/kg at 0 and 6 h): 100%
% of Protection (survival at 18 h) ([10]; 18 h after LPS): 40%
% of Survival at 18 h, LPS + Compound ([10]; 18 h after LPS, method: LPS 60 mg/kg i.p., compound 2.5 mg/kg at 0 and 6 h): 40%
Lung tissue morphology after compound alone ([11]; injections of compound alone, no LPS, n=2, FIG. 5 (400×) and FIG. 6 (40×)): morphologically relatively normal lung tissues
PMN infiltration in lung caused by LPS ([11]; pretreatment with compound, high power (400×) light microscope, FIG. 5): improved
Thickness of alveolar wall with interstitial congestion and edema caused by LPS ([11]; pretreatment with compound, low power (40×) light microscope, FIG. 6): improved
SGOT % Inhibition [12, 13]: 53%
SGOT, LPS + Compound [12, 13]: 158 U/L

C=CCCCN1CCC2(C)c3cc(O)ccc3CC1C2C (stereo not shown) [N-pent-4-enyl]
Ki [1]: 2 nM
σ2/σ1 ([1]; selectivity ratio): 1250

O=C1CC[C@@]2(O)[C@@H]3Cc4ccc(O)c5c4C2(CCN3CC2CC2)[C@H]1O5 [XXV]
MAP % Protection [2]: 33%
MAP, LPS + Compound [2]: 80 mmHg
SGPT, LPS + Compound [4, 13]: 61.6 U/L
SGPT % Inhibition [4, 14]: 78%
Effect on SGTP after LPS [4, 15]: significant decrease
SGPT % Inhibition ([4]; Post-treatment with 10 mg/Kg): 82%
SGPT, LPS + Compound ([4]; Post-treatment with 10 mg/Kg): 59.6 U/L
SGPT % Inhibition ([4]; Pretreatment with 10 mg/Kg): 94%
SGPT, LPS + Compound ([4]; Pretreatment with 10 mg/Kg): 53.8 U/L
Superoxide % Inhibition ([6]; Post-treatment with 10 mg/Kg): 69%
Superoxide, LPS + Compound ([6]; Post-treatment with 10 mg/Kg): 15720 relative units
Superoxide % Inhibition ([6]; Pretreatment with 10 mg/Kg): 85%
Superoxide, LPS + Compound ([6]; Pretreatment with 10 mg/Kg): 11866 relative units
TNF-α % Inhibition [8]: 50%
TNF-α, LPS + Compound [8]: 180 ng/mL
Heart Rate % Protection [9]: >90%
Heart Rate, LPS + Compound [9]: 410 beats/min
SGOT % Inhibition [12, 13]: 60%
SGOT, LPS + Compound [12, 13]: 192 U/L
Effect on SGOT after LPS [12, 15]: significant decrease
SGOT % Inhibition ([12]; Post-treatment with 10 mg/Kg): 76%
SGOT, LPS + Compound ([12]; Post-treatment with 10 mg/Kg): 192 U/L
SGOT % Inhibition ([12]; Pretreatment with 10 mg/Kg): 94%
SGOT, LPS + Compound ([12]; Pretreatment with 10 mg/Kg): 192 U/L

Br.COc1ccc2c(c1)[C@@]13CCCC[C@H]1[C@@H](C2)N(Cc1ccccc1)CC3
melting point: 185 to 186 °C

Br.COc1ccc2c(c1)[C@@]13CCCC[C@H]1[C@@H](C2)N(Cc1ccc(F)cc1)CC3
melting point: 226 to 228 °C

C=CCCCCN1CCC2(C)c3cc(O)ccc3CC1C2C (stereo not shown) [N-hex-5-enyl]
Ki [1]: 1 nM
σ2/σ1 ([1]; selectivity ratio): 750
